# Laboratory results from US20260272871A1, “USE OF RETINOIC ACID RECEPTOR ACTIVATOR AND COMPOSITION THEREOF IN REGENERATION AND REPAIR OF MAMMALS” (INSTITUTE OF ZOOLOGY, CHINESE ACADEMY OF SCIENCES, priority 2022, published 2026).
# “Also recorded” adds a separate entry of the source.
# How the values were obtained:
# [1] = test system: 2 mm diameter mouse ear hole; assay: 2 mm ear hole trauma mouse model (ear hole closure); assay type: in vivo, C57BL/6 mice; conditions: for healing of 2 mm ear holes by inhibitors of ferroptosis and autophagy: 10-20 mg/kg, measured 21 days after damage, vs DMSO and CHX, FIG. 3; for ear hole regeneration (healing) on interfering with potential RA targets: 10 or 20 mg/kg per reagent, 21 days after the trauma, FIG. 5B
# [2] = test system: 4 mm diameter mouse ear hole; set-up: species or system mice; conditions: in vivo
# [3] = test system: scalded skin of mice; assay: Scald scar formation in mice; assay type: in vivo; conditions: after 40 days of administration, after hair shaving, vs Vehicle; FIG. 7
# Procedure: Experimental method: 7-week-old mice were used and (1) mice were anesthetized by intraperitoneal injection of 0.5% pentobarbital sodium (100 μl/10 g b.w.); (2) the back was shaved, and the skin was disinfected with 75% alcohol. (3) the mice were scalded with boiling water for 10-15 seconds. The scald area was a circle with a diameter of 1.5 cm. […] (5) wound repair status was detected.
smiles,measurement,setting,value
O=C1OC(COc2ccccc2[N+](=O)[O-])CC1Cc1ccccc1 (stereo not shown) [3BDO],healing of 2 mm ear holes by inhibitors of ferroptosis and autophagy,[1],Neither inhibitors of ferroptosis nor autophagy could promote the healing of the ear hole like CHX
Cc1ccc(C2=CCC(C)(C)c3ccc(C#Cc4ccc(C(=O)O)cc4)cc32)cc1 [AGN193109],effect of RAR inhibitor on CHX-induced ear hole healing,"[1]; CHX 20 mg/kg + AGN 0.75 mg/kg i.p., 21 days after damage, FIG. 4",completely inhibit the healing of the ear holes induced by CHX
same,effect of RAR inhibitor on the coordinated effect of CHX+RA,"[1]; CHX 20 mg/kg + RA 5 mg/kg + AGN 0.75 mg/kg i.p., 21 days after damage, FIG. 4",could still be inhibited
"COc1ccc(C[C@H]2NC[C@H](O)[C@H]2OC(C)=O)cc1 [Ani, Anisomycin]",healing of the 2 mm ear hole,"[1]; mouse, in vivo",could significantly promote the healing of the ear hole
Cc1cc(Nc2cc(Cl)nc(Oc3ccc([N+](=O)[O-])cc3)n2)n[nH]1 [Autophinib],healing of 2 mm ear holes by inhibitors of ferroptosis and autophagy,[1],Neither inhibitors of ferroptosis nor autophagy could promote the healing of the ear hole like CHX
"C[C@@H]1C[C@@H]([C@H](O)CC2CC(=O)NC(=O)C2)C(=O)[C@@H](C)C1 [CHX, 4-((R)-2-((1S,3S,5S)-3,5-dimethyl-2-oxocyclohexyl)-2-hydroxyethyl)piperidine-2,6-dione]",HE staining of auricle tissue 180 days after ear hole closure,"[1]; mouse, in vivo","regeneration of tissues and tissue derivatives such as hair follicles, glands, cartilage, muscles and blood vessels"
same,HE staining of mouse auricle tissue,"[1]; mouse, in vivo",the trauma had completely healed
same,"HE staining of mouse auricle tissue, 15th day","[1]; mouse, in vivo",healed the tissue after damage and formed granulation tissue
same,KI67 immunohistochemical staining of mouse auricle tissue,"[1]; mouse, in vivo",expressed a large amount of KI67
same,concentration (dose) above which the ear hole wound was completely closed,"[1]; mouse, in vivo",greater than 8 mg/kg
same,dose dependence of promotion of 2 mm ear hole healing,"[1]; mouse, in vivo",dose-dependent
same,effect of different administration manners on ear hole healing,"[1]; mouse, in vivo",different manners of administration had the effect of promoting regeneration
same,healing condition of 2 mm ear hole (photograph),"[1]; mouse, in vivo",had completely closed
same,healing of the 2 mm ear hole,"[1]; mouse, in vivo",could significantly promote the healing of the ear hole; also recorded: the healing effect of CHX was better
same,closure of 2 mm diameter ear holes at different concentrations of CHX,"[1]; mouse, in vivo, ip",promoted the closure
same,closure of 4 mm diameter ear holes,[2],"promoted the shrinkage of ear hole wounds, but could not completely close them; also recorded: complete closure of the ear holes could be achieved"
same,wound area of the 4 mm mouse ear hole,[2],significantly reduced
"CC1=C(/C=C/C(C)=C/C=C/C(C)=C/C(=O)O)C(C)(C)CCC1 [RA, all-trans retinoic acid]",closure of the ear hole with RA alone,"[1]; RA 5 mg/kg, 20 mg/kg vs DMSO, 21 days after ear hole damage, FIG. 5A",promote the closure of the ear hole in a dose-dependent manner
same,scar area after scald,[3],significantly reduce the scar area
CCC(CC)C(c1ccc(Nc2nc3ccccc3s2)cc1)n1cncn1 (stereo not shown) [Talarozole],ear hole regeneration (healing) on interfering with potential RA targets,[1],could also promote ear hole regeneration
O=S(=O)(NCCN1CCNCC1)c1ccc(NC2CCCCC2)c(NCc2ccccc2)c1 [UAMC-3203],healing of 2 mm ear holes by inhibitors of ferroptosis and autophagy,[1],Neither inhibitors of ferroptosis nor autophagy could promote the healing of the ear hole like CHX
CC1=C(/C=C/C(C)=C/C=C/C(C)=C/CO)C(C)(C)CCC1 [vitamin A],ear hole regeneration (healing) on interfering with potential RA targets,[1],could also promote ear hole regeneration
